Assay results from patent US20210371855A1, “METHODS OF INHIBITING PROLIFERATIVE CELLS” (IDEAYA BIOSCIENCES, INC., priority 2018, published 2021).

Key:
MMR-deficient cells = conditions: Yan et al. 2003; cited from earlier work
MLH1 reexpressing cells = test: 6-thioguanine sensitivity of MLH1 reexpressing cells; type: cell-based; conditions: FIG. 8C
MMR-proficient cells = conditions: Yan et al. 2003; cited from earlier work
[1] = tested on: MSS cell lines, SW620 and SW948; test: Proliferation with WRN inhibitors, IncuCyte live-cell counting over 6 days; type: cell-based; conditions: SW620 and SW948, 6 days, FIG. 12
Protocol: (§1) Cell lines were infected with NucLight Red lentivirus (Essen Biosciences cat #4476) to express a red fluorescent protein in the nucleus thus enabling live-cell counting. Two cell lines with high microsatellite instability (MSI), HCT116 and RKO, and two microsatellite stable (MSS) cell lines, SW620 and SW948, were treated with WRN inhibitors, NSC 19630 (Calbiochem cat #681647) and NSC 617145 (Sigma cat #SML 1005) as follows. Cells were counted and seeded in triplicate into a 96-well plate (500 cells/well for MSI and 1000 cells/well for MSS). The next day, the cells were treated with compounds and monitored over 6 days in an IncuCyte ZOOM instrument. The cell count from the last time point was used to calculate IC50 values using GraphPad Prism 7.

[2] = tested on: MSI cell lines, HCT116 and RKO; test: as above; type: cell-based; conditions: FIG. 12
Protocol: as §1

SMILES	sensitivity of cells to 6-thioguanine (MMR-deficient cells)	sensitivity of cells to 6-TG (MLH1 reexpressing cells)	sensitivity of cells to 6-thioguanine (MMR-proficient cells)	sensitivity of MSS cell lines to the inhibitors [1]	effect on proliferation of MSI cell lines [2]
Nc1nc2nc[nH]c2c(=S)[nH]1 [6-TG, 6-thioguanine]	resistant	more sensitive	sensitive		
CCC(=O)OCN1C(=O)C=CC1=O [NSC 19630]				differences in sensitivity	decreased proliferation
CC(C)(CN1C(=O)C(Cl)=C(Cl)C1=O)CN1C(=O)C(Cl)=C(Cl)C1=O [NSC 617145]				differences in sensitivity	decreased proliferation
